Tests used:
Test in all cases: inhibition of methyl p-nitrophenyl phosphate hydrolysis, […] nm
Type in all cases: biochemical
[1] = target: AP (Escherichia coli alkaline phosphatase) (Escherichia coli, UniProt P00634, K350A)
[2] = target: AP (Escherichia coli alkaline phosphatase) (Escherichia coli, UniProt P00634, D123A)
[3] = target: AP (Escherichia coli alkaline phosphatase) (Escherichia coli, UniProt P00634, E344Y)
[4] = target: AP (Escherichia coli alkaline phosphatase) (Escherichia coli, UniProt P00634, D175A)
Chain of AP (Escherichia coli alkaline phosphatase) (Escherichia coli, UniProt P00634, D175A) (P00634 23-471 D175A): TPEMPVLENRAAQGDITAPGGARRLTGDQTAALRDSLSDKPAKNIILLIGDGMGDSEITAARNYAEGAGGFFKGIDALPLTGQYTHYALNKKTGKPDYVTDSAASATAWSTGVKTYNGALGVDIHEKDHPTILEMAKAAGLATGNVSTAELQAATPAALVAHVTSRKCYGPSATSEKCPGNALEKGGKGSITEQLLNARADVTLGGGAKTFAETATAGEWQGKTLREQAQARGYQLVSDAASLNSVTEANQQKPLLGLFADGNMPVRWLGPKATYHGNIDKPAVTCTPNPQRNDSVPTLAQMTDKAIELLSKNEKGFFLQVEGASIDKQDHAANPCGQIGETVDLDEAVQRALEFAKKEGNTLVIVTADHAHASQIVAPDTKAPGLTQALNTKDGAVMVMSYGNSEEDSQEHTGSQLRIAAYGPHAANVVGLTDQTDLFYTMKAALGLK

Chain of AP (Escherichia coli alkaline phosphatase) (Escherichia coli, UniProt P00634, D123A) (P00634 23-471, stated change not applied): as the sequence (P00634 23-471 D175A) above, with A153D counted along it
Chain of AP (Escherichia coli alkaline phosphatase) (Escherichia coli, UniProt P00634, K350A) (P00634 23-471 K350A): as the sequence (P00634 23-471 D175A) above, with A153D, K328A counted along it
Chain of AP (Escherichia coli alkaline phosphatase) (Escherichia coli, UniProt P00634, E344Y) (P00634 23-471 E344Y): as the sequence (P00634 23-471 D175A) above, with A153D, E322Y counted along it

SMILES	Ki [1] [µM]	Ki [2] [µM]	Ki [3] [µM]	Ki [4] [µM]
[O]=[V]([OH])([OH])[OH] [vanadate]	9.4	13	28	17
[O]=[W](=[O])([OH])[OH] [tungstate]	44	99	–	64
